From patent publication US4916122A, “3'-Azido-2',3'-dideoxyuridine anti-retroviral composition” (University of Georgia Research Foundation, Inc., priority 1987, dated 1990)
Where “and” joins values, the source holds several entries; their conditions need not be identical. Equal entries are not always repeated. Where two headings read alike, the source gives them in different places.

Experiments:
HIV (LAV-1) = test: Median effective antiviral concentration against HIV (Table 5); type: cell-based; conditions: HIV (LAV-1) vs Friend (EY-10) or Cas-Br-M
[1] = tested on: Mouse ecotropic (Cas-Br-M); test: Median effective antiviral concentration against mouse ecotropic virus (Table 5); type: cell-based, murine retrovirus; conditions: unidentified retrovirus
Description: A comparison of the differences in median effective an tiviral concentrations between human, non-human primate, and murine retroviruses is shown in Table 5. […] A further comparison of the activity of several nucleoside analogues, including CS-87, against HIV-1 and SIV in human PBM cells is shown in FIG. 6. The effect of delayed treatment with AZT, CS-87 or CS-91 on the replication of HIV-1 and SIV in human PBM cells is shown in FIGS. 7a, b, and c.

in vitro = type: cell-based
Description: The effect of CS-87 on colony formation of human granulocytes-macrophage precursor cells was compared with the effects of AZT and CS-85 in FIG. 1. Vero cells are very fast growing cells, and it can be seen from FIG. 2a that up to a concentration of about 400 micromolar, there is relatively little toxicity to these cells. PBM cells are somewhat more sensitive to CS-87 than the Vero cells, but these cells will still tolerate a concentration of CS-87 of up to about 200 micromolar before significant inhibition is noted (see FIG. 2b).

NIH Swiss mice = conditions: 67 days; for Hct / Hgb / MCH / MCHC / MCV / PLT / RBC / RDW / WBC: oral 0.5 mg/ml ad libitum
HIV-1 (strain LAV) = test: Inhibition of HIV replication in human PBM cells, reverse transcriptase assay (Table 3)
[2] = Human immunodeficiency virus 1, PBMC, in Homo sapiens, read-out: RT % Inhibition (corrected)

In the case of `[N-]=[N+]=N[C@H]1C[C@H](n2ccc(=O)[nH]c2=O)O[C@@H]1CO` [CS-87, 3'-azido-2',3'-dideoxyuridine], the “effectiveness against HIV (LAV-1) compared with Friend or mouse ecotropic virus” value (HIV (LAV-1)) is reported as “much more effective”, the EC50 [1] is reported as 9.1 µM and the MNTC (in vitro; human, PBM cells, FIG. 2b, read-out: concentration tolerated by PBM cells before significant inhibition is noted) is reported as about 200 µM. It also gave an MNTC (in vitro; monkey, Vero cells, FIG. 2a, read-out: concentration up to which there is relatively little toxicity to Vero cells) of about 400 µM, a Hct (NIH Swiss mice; Mean of group) of 42.4% and a Hgb (NIH Swiss mice; Mean of group) of 14.0 g/dL. It also gave an MCH (NIH Swiss mice; Mean of group) of 16.7 pg, an MCHC (NIH Swiss mice; Mean of group) of 33.1 g/dL and an MCV (NIH Swiss mice; Mean of group) of 50.4 fL. The PLT (NIH Swiss mice; Mean of group) was 1.3 × 10^6, the RBC (NIH Swiss mice; Mean of group) was 8.4 × 10^6 and the RDW (NIH Swiss mice; Mean of group) was 26.0%. For the same molecule, the WBC (NIH Swiss mice; Mean of group) was 8.0 × 10^3, the “toxicity compared to AZT (RBC and MCV values)” value (NIH Swiss mice; NIH Swiss mice, oral 0.5 mg/ml) was “significantly less toxicity” and the Hct (NIH Swiss mice; individual mouse) was 37.2% and 44.4% and 42.3% and 45.7%. The Hgb (NIH Swiss mice; individual mouse) was 12.9 g/dL and 14.1 g/dL and 14.2 g/dL and 14.8 g/dL, the MCH (NIH Swiss mice; individual mouse) was 16.9 pg and 16.4 pg and 16.6 pg and 16.8 pg and the MCHC (NIH Swiss mice; individual mouse) was 34.6 g/dL and 31.8 g/dL and 33.5 g/dL and 32.4 g/dL. For the same molecule, the MCV (NIH Swiss mice; individual mouse) was 48.8 fL and 51.7 fL and 49.4 fL and 51.8 fL, the PLT (NIH Swiss mice; individual mouse) was 1.158 × 10^6 and 1.35 × 10^6 and 1.305 × 10^6 and 1.361 × 10^6 and the RBC (NIH Swiss mice; individual mouse) was 7.6 × 10^6 and 8.6 × 10^6 and 8.8 × 10^6. For the same molecule, the RDW (NIH Swiss mice; individual mouse) was 34.3% and 16.8% and 37.7% and 15.3%, the WBC (NIH Swiss mice; individual mouse) was 2.6 × 10^3 and 8.9 × 10^3 and 7.9 × 10^3 and 12.6 × 10^3 and the “RT: Mean DPM/ml on day 5 (3 day old cells)” value (shortened to “RT: Mean DPM/ml”) (HIV-1 (strain LAV); 0.1 μM) was 367,934 DPM/ml. The “RT: Mean DPM/ml” value (HIV-1 (strain LAV); 1 μM) was 188,878 DPM/ml, the “RT: Mean DPM/ml” value (HIV-1 (strain LAV); 10 μM) was 12,904 DPM/ml and the inhibition at 0.1 µM (HIV-1 (strain LAV); [2]) was 42.3%. The inhibition at 1 µM (HIV-1 (strain LAV); [2]) was 70.4% and the inhibition at 10 µM (HIV-1 (strain LAV); [2]) was 98%.
